In patent US10800810B2, “Active peptide for inhibiting AMPA receptor and preparation method and use thereof” (CHINA NATIONAL RESEARCH INSTITUTE OF FOOD AND FERMENTATION …, priority 2015, dated 2020):

Assays:
[1] = system: pentylenetetrazole (PTZ) model; conditions: background; cited from earlier work
[2] = background; cited from earlier work
[3] = system: hippocampal neuron; assay: Epilepsy-like discharge of a hippocampal neuron induced by low magnesium external liquid; format: cell-based, mouse
Method: (§1) The slices of the hippocampus are transferred to an underwater recording room (Warner instrument). In the recording room, the slices are continuously perfused with ACSF at a speed of 3 ml/min, and whole-cell records of neurons of CA1 region of the hippocampus are performed by those experimenters who are not distinguished between a control group and a treated group. The neurons are identified through morphological recognition using an infrared ray differential interference phase-contrast microscope (BX51W, Olympus, Japan). A borosilicate microtube of 1.5 mm (external diameter)×0.86 mm (internal diameter) is drawn via a flame Brown electrode drawing instrument (P-97, Sutter instrument) using a 4 stage drawing scheme, to form a recording electrode with a resistance between 6-9 megohms. The recording electrode for recording is filled with above-mentioned internal liquid, and a whole-cell recording is proceeded by using above-mentioned external liquid.
(5) In an experiment of nominal zero magnesium, magnesium ions are replaced by sodium ions with the same osmotic concentration.

[4] = system: AMPA receptor; assay: Current induced by AMPA, patch clamp; format: cell-based, mouse
Method: as §1
(§2) (4) With regard to records of currents induced by NMDA, 100 μM of NMDA is added into above-mentioned external liquid; with regard to records of currents induced by AMPA, 20 μM of AMPA is added into above-mentioned external liquid.

[5] = system: CA1 neuron; assay: Effect on electrophysiological properties of a neuron; format: cell-based, mouse
Method: as §1

[6] = system: NMDA receptor; assay: Current induced by NMDA, patch clamp; format: cell-based, mouse; conditions: 100 μM NMDA plus 20 μM EGAR, P>0.05, n=6
Method: as §1, §2

[7] = system: neurons of CA1 region of the hippocampus; assay: Whole-cell recording of EPSC and mEPSC in mouse hippocampal slices; format: cell-based; conditions: for amplitudes of mEPSCs: P<0.03
Method: Hippocampus is taken from a C57BL/6 mouse to do whole-cell recording. The mouse is deep narcotized with 20% urethane before being decollated, then its brain is rapidly removed and immersed in ice-cold ACSF, then the brain is trimmed, and fixed onto a vibration slicer (Leica VT1000A, Germany) to be cut into coronal slices of 350 microns. The slices are incubated with ACSF for at least 1 hour at room temperature before recording.
as §1
(§3) Bipolar polytetrafluoroethylene insulated iridium is used to perform a voltage-clamp recording of excitatory postsynaptic currents (EPSCs), and platinum microelectrode (AM system) is induced at a frequency of 0.0167 Hz. Records are taken by a Multiclamp 700B amplifier, filtered at 10 kHz, sampled at 200 microseconds, and recorded to a personal computer by using pClamp10.2 software, and then analyzed by using Axon Digidata 1440A and pClamp10.2 (Molecular Devices).
Experiments mentioned below are carried out respectively, and the results are represented by an average value±S.E.M. In addition to data analysis of cumulative probability by the means of K-S test, statistical analyses of biological data are all performed by using T-test. All the statistical analyses are done by using SPSS 13.0 software.
(1) EPSCs of slices treated by EGAR are recorded, while EPSCs of slices without EGAR treatment is as contrast, and 10 μM of PTX is added into the external liquid to separate mEPSCs out.

[8] = system: NMDA receptor; assay: NMDAR-mediated EPSC and mEPSC in mouse hippocampal slices; format: cell-based
Method: as §1, §3
(2) after blocking components of NMDA receptor-mediated EPSCs by adding 50 μM of D-APV to ACSF and blocking AMPAR-mediated EPSCs by adding 10 μM of CNQX to ACSF, remaining EPSCs of both them are also recorded. 10 μM of PTX is added in external liquid to isolate mEPSCs. After 10 μM of CNQX and 20 μM of EGAR and also 50 μM of D-APV (an antagonist of NMDA receptor) and 20 μM of EGAR are added to ACSF, mEPSCs are also recorded. By adding 10 μM of CNQX or 50 μM of D-APV to ACSF, NMDAR-mediated or AMPAR-mediated mEPSCs are isolated. […]

[9] = system: AMPA receptor; assay: AMPAR-mediated EPSC and mEPSC in mouse hippocampal slices; format: cell-based
Method: as §1, §3
(2) after blocking components of NMDA receptor-mediated EPSCs by adding 50 μM of D-APV to ACSF and blocking AMPAR-mediated EPSCs by adding 10 μM of CNQX to ACSF, remaining EPSCs of both them are also recorded. 10 μM of PTX is added in external liquid to isolate mEPSCs. After 10 μM of CNQX and 20 μM of EGAR and also 50 μM of D-APV (an antagonist of NMDA receptor) and 20 μM of EGAR are added to ACSF, mEPSCs are also recorded. By adding 10 μM of CNQX or 50 μM of D-APV to ACSF, NMDAR-mediated or AMPAR-mediated mEPSCs are isolated.
(3) With regard to a NMDAR-mediated current record, 100 μM of NMDA is added into the above-mentioned external liquid; and with regard to an AMPAR-mediated current record, 20 μM of AMPA is added into above-mentioned external liquid.

[10] = system: PTZ-induced mouse epilepsy; assay: Model of PTZ-induced epilepsy seizure; format: in vivo; conditions: for preclinical period of epilepsy seizure vs PBS treated group: 30 minutes before PTZ 55 mg/kg i.p.
Method: In order to determine anticonvulsive effect of EGAR, the degree of epilepsy after EGAR treatment is evaluated for the model of PTZ-induced epilepsy seizure. EGAR is injected into animals earlier 30 minutes than PTZ. The animals are randomly divided into 4 groups, and each group has 10 animals. 4 groups are given EGAR at 0, 1, 10 and 100 mg/kg respectively. All animals are intraperitoneally injected with PTZ at a dose of 55 mg/kg, and this dose can produce clonic seizures in all control animals.
Behaviors of mice are observed for 30 minutes immediately after PTZ injection. […] Mice are placed in a transparent plastic cage, and are observed for 30 minutes. The cage is thoroughly cleaned by using wet/dry cloth and any olfactory clue is removed with 70% ethanol. Animals that show rampage and forelimb clonus or more serious behavior (rampage, clonus and fall down) are considered to be epilepsy in mouse brain edge. Epilepsy seizure is scored according to the following criteria: 0, no response; 1, immobile; 2, taste movement and grasping; 3, tremor; 4, head shaking; 5, rampage and forelimb clonus; 6, rampage, clonus and fall down; 7, death.

[11] = behavioral experiment, overall conclusion

## NS(=O)(=O)c1cccc2c1c([N+](=O)[O-])cc1nc(O)c(O)nc12 [NBQX, 2,3-dihydroxy-6-nitro-7-sulfamoyl benzo [f] quinoxaline]
[1]
  effect in pentylenetetrazole (PTZ) model: can play a role
[2]
  solubility: low solubility

## EGAR: tetrapeptide with an amino-acid sequence of SEQ ID No.17, contained in the salmon skin active peptide; synthetic EGAR used in tests (Salmo salar)
[3]; 20 μM EGAR, P<0.05, n=6
  frequency of a peak current caused by low magnesium, difference between groups: significant difference
[3]; overall conclusion
  epilepsy-like discharge of a hippocampal neuron induced by low magnesium external liquid: can inhibit
[4]; 20 μM AMPA plus 20 μM EGAR, P<0.01, n=6
  peak current of AMPA, difference between groups: significant difference
[4]; 20 μM AMPA, 20 μM EGAR, voltage-clamped at -70 mV
  inward current induced by AMPA: reduced
[5]; 20 uM of EGAR treated group
  Action potential half width: 0.99 ± 0.01 ms
  Amplitude: 87.61 ± 1.18 mV
  Frequency: 13.53 ± 2.42 Hz
  Input resistance: 164.57 ± 9.96 MΩ
  Membrane capacitance: 19.07 ± 0.67 pF
  Resting potential: −65.57 ± 1.23 mV
  Threshold potential: −45.61 ± 0.2 mV
[5]; overall conclusion of Table 2
  effect on electrophysiological parameters of a CA1 neuron: no significant effect
[6]
  peak current of NMDA, difference between groups: no significant difference
[7]; 20 μM EGAR
  amplitudes of mEPSCs: reduce
[7]; 50 μM EGAR
  amplitudes of mEPSCs: reduce
[7]; 100 μM EGAR
  amplitudes of mEPSCs: reduce
[7]; EGAR treated groups at concentrations
  cumulative probabilities of mEPSC event intervals vs control group: no difference
[7]; EGAR treated groups at concentrations, K-S test p<0.05
  cumulative probabilities of mEPSC amplitudes vs control group: reduced
[7]; slices treated with EGAR, 10 μM PTX
  mEPSC frequencies vs control group: no change
[8]; 10 μM CNQX then 20 μM EGAR, P>0.05, n=6
  amplitude of NMDAR-mediated EPSC vs control group: not changed
[8]; 100 μM NMDA plus 20 μM EGAR, P>0.05
  frequencies of NMDAR-mediated mEPSCs: no significant difference
[8]; 100 μM NMDA plus 20 μM EGAR, P>0.05, n=6
  amplitudes of NMDAR-mediated mEPSCs: no significant difference
[9]; 50 μM D-APV and 20 μM EGAR, P<0.01, n=6
  amplitude of AMPAR-mediated EPSC vs control group: significantly lower
[9]; K-S test, p<0.05, n=6
  cumulative probabilities of AMPAR-mediated mEPSCs amplitudes vs control group: reduces
[9]; K-S test, p>0.05, n=6
  cumulative probabilities of AMPAR-mediated mEPSC event intervals vs control group: no difference in frequency
[9]; neurons treated by EGAR, P<0.05, t test, n=6
  amplitude of AMPAR-mediated mEPSCs vs control group: decline
[9]; neurons treated with EGAR, P>0.05, t test
  frequencies of AMPAR-mediated mEPSCs vs control group: do not change
[10]; 1 mg/kg EGAR
  preclinical period of epilepsy seizure vs PBS treated group: significant difference
[10]; 10 mg/kg EGAR
  preclinical period of epilepsy seizure vs PBS treated group: significant difference
[10]; 100 mg/kg EGAR
  preclinical period of epilepsy seizure vs PBS treated group: significant difference
[10]; [11]
  preclinical period of epilepsy seizure: extend the preclinical period
  tic symptom of PTZ-induced mouse epilepsy: mitigate tic symptom
